This is an account of results in US20210155611A1, “THE SALTS OF A COMPOUND AND THE CRYSTALLINE FORMS THEREOF” (Flutchison Medipharma Limited, priority 2017, published 2021).

Common to all, as to assay type: physicochemical
Data set [1] in a line: Solubility test of Form I and free base in different dissolution media. The conditions noted are these: for solubility at 24 h: thermodynamic from solid, saturated for 24 hours. The protocol: Determination method: excess amount of Form I sample of compound of Formula A and its free base (compound 4-ethyl-N-(4-((3-ethynylphenyl)amino)-7-methoxyquinazolin-6-yl) piperazine-1-carboxamide) were suspended in different dissolution media respectively, and saturated for 24 hours under shaking at constant temperature, then filtered. The filtrates were used for determining solubility of the samples. The buffers of different pH, simulated gastric fluid, and simulated intestinal fluid were prepared according to the US pharmacopeia (USP40-NF35).

The nature of data set [2]: Stability of Form I under high temperature, high humidity and illumination conditions. The settings on record: for Purity A %: HPLC. The protocol: Determination method: the test sample of Form I of compound of Formula A was placed on a culture dish, which was uncovered and placed in sealed clean containers. The containers were placed under a temperature of 60° C. and an illumination of 4500 lx±500 lx respectively for 10 days; or the containers were placed under a temperature of 25° C. and a relative humidity of 92.5%%±5% and under a temperature of 40° C. and a relative humidity of 75%±5% respectively for 2 weeks.
Then sampled and investigated for the purity (using HPLC analysis) and crystalline form (using X-ray powder diffraction analysis) of the sample.

The nature of data set [3]: Hygroscopicity of Form I. The procedure:
Determination method: the test sample of Form I was weighed and placed on a culture dish, which was uncovered and placed in a sealed clean container with the relative humidity of 92.5%. Then the container was placed at room temperature for 10 days. Then sampled, weighed the sample after placed for 10 days, and compared with the weight of the sample before the test. Thereby the percentage of weight gain by hygroscopicity of the sample was calculated. The crystalline form was also investigated (using X-ray powder diffraction analysis).

[4] abbreviates: aqueous buffer, pH 1.2 buffer, 25° C.
[5] abbreviates: aqueous buffer, pH 2.1 buffer, 25° C.
[6] abbreviates: aqueous buffer, pH 4.5 buffer, 25° C.
[7] abbreviates: aqueous buffer, pH 6.8 buffer, 25° C.
Setting [8] is: aqueous buffer, pH 7.4 buffer, 25° C.
The mark [9] stands for this setting: fassgf or other biorelevant, Simulated intestinal fluid (SIF), 20° C.
[10] abbreviates: Simulated gastric fluid (SGF), 20° C.

Converted amounts (≈) assume the structure as drawn. “Also recorded” adds a separate entry of the source.

Turning to `C#Cc1cccc(Nc2ncnc3cc(OC)c(NC(=O)N4CCN(CC)CC4)cc23)c1.O=C(O)CCC(=O)O` [compound of Formula A, 4-ethyl-N-(4-((3-ethynylphenyl)amino)-7-methoxyquinazolin-6-yl)piperazine-1-carboxamide succinate], the “Solubility compared with that of the free base, in words” value in data set [1] (data of Table 4, succinate) was “significantly increased; also recorded: significantly higher”.
Regarding `C#Cc1cccc(Nc2ncnc3cc(OC)c(NC(=O)N4CCN(CC)CC4)cc23)c1.O=C(O)CCC(=O)O` [Form I, 4-ethyl-N-(4-((3-ethynylphenyl)amino)-7-methoxyquinazolin-6-yl)piperazine-1-carboxamide succinate], the “Purity A %” value is given as 99.37% in data set [2] (0 day (Table 1)); 98.98% in data set [2] (0 day (Table 2)); 98.68% in data set [2] (60° C., 10 days); 99.08% in data set [2] (75 ± 5% RH/40° C., 2 weeks); 98.98% in data set [2] (92.5 ± 5% RH/25° C., 2 weeks); 99.29% in data set [2] (4500 lx ± 500 lx, 10 days). Besides, the “Stability (chemical purity and crystalline form), conclusion in words” value in data set [2] (high temperature and illumination 10 days, high humidity 2 weeks) is given as “stable”. For the same compound, the “Crystal form after 10 days” value in data set [3] (92.5% RH, 25° C., 10 days, X-ray powder diffraction) was “not changed”. Besides, in data set [3] (92.5% RH, 25° C., 10 days, succinate), the “Weight gain after 10 days (%)” value is on record as 0.01%. The “Hygroscopicity, conclusion in words” value in data set [3] (high humidity condition for 10 days) is reported as “non-hygroscopic”. For the same compound, the solubility at 24 h in data set [1] (setting [4]) was 103000 µg/mL; in data set [1] (setting [5]) it was 15500 µg/mL; in data set [1] (setting [6]), 10000 µg/mL; in data set [1] (setting [7]), 253 µg/mL; in data set [1] (setting [8]) it was 46.1 µg/mL; in data set [1] (aqueous buffer, pH 8.0 buffer, 25° C.) it was 0.5 µg/mL. Further, the solubility at 24 h is 253 µg/mL in data set [1] (setting [9]); 803 µg/mL in data set [1] (Distilled water, 20° C.); 103000 µg/mL in data set [1] (setting [10]).
Consider `C#Cc1cccc(Nc2ncnc3cc(OC)c(NC(=O)N4CCN(CC)CC4)cc23)c1` [free base, 4-ethyl-N-(4-((3-ethynylphenyl)amino)-7-methoxyquinazolin-6-yl)piperazine-1-carboxamide], for which the solubility at 24 h in data set [1] (setting [4]) was 38500 µg/mL (≈ 89400 µM); in data set [1] (setting [5]), 5450 µg/mL (≈ 12700 µM); in data set [1] (setting [6]), 5.21 µg/mL (≈ 12.1 µM); in data set [1] (setting [7]), 0.84 µg/mL (≈ 1.95 µM); in data set [1] (setting [8]), 0.41 µg/mL (≈ 0.952 µM); in data set [1] (setting [9]), 0.84 µg/mL (≈ 1.95 µM). The solubility at 24 h in data set [1] (Distilled water, 20° C.) is 1 µg/mL (≈ 2.32 µM); in data set [1] (setting [10]) it was 38500 µg/mL (≈ 89400 µM).
